As usually defined, the half-life is the time in which the quantity being followed falls by half. Low readings indicate fast loss, high ones slow loss. The EC50 is the concentration that produces a half-maximal response.

Data set [1] in a line: Stability test at different pH (buffered solutions). Particulars: buffer.
Method: (§3) Tested peptides were dissolved (1 mM) in 100 mM sodium citrate buffer (pH 3), 100 mM potassium phosphate buffer (pH 7), or 100 mM sodium carbonate buffer (pH 9).
The target in another data set is T1, human V1bR (Homo sapiens, UniProt P47901).
T1 construct: expressed in transfected cells; host or cells: COS-1
T1 sequence (P47901 1-424): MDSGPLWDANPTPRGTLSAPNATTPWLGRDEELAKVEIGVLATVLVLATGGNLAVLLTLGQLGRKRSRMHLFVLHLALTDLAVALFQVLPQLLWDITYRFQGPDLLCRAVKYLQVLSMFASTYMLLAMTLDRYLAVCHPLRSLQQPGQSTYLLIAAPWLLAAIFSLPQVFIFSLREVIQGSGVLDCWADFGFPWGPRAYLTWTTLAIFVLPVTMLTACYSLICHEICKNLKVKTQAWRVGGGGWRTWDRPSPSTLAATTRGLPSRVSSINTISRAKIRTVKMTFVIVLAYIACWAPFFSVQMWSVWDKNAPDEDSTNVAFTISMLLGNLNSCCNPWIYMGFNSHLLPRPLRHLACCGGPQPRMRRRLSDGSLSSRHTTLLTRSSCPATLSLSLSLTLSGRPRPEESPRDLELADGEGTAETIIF
As to the kind of experiment: FLIPR calcium mobilisation assay, hV1bR. The format is cell-based. Particulars: COS-1 cells transfected with hV1bR; n = 3, mean ± SEM. The method, then:
(§1) OTR belongs to the rhodopsin-type (class I) G protein-coupled receptor (GPCR) family and is closely related to the vasopressin (VP) receptor (VPR) family (V1aR, V1bR, V2R). […] OTR, V1aR, and V1bR are expressed in the periphery and in CNS, while V2R is primarily expressed in the kidneys and was deemed not in scope for our exploration. The EC50 of our ligands was measured using a Fluorescent Imaging Plate Reader (FLIPR) calcium mobilisation assay (Fig. 2C)[34].
(§2) COS-1 cells were cultured in Dulbecco’s modified Eagle’s medium (DMEM) and 5% foetal bovine serum (FBS). […] Fluo-4-AM [4-(6-acetoxymethoxy-2,7-difluoro-3-oxo-9-xanthenyl)-4′-methyl-2,2′-(ethylenedioxy)dianilineN,N,N′,N′-tetraacetic acid tetrakis(acetoxymethyl) ester] ([…]) in PSS containing 0.3% fatty acid-free BSA was then added, and the cells incubated for 30 min at 37 °C. […] The baseline fluorescence was set to a minimum of 1000 arbitrary fluorescence units. The baseline fluorescence was read 10 times, followed by the addition of test compounds and fluorescence measurement every second for 180 s. The test compounds were added as an 8-point gradient in triplicate, with the highest concentration of 10 μM in PSS. To convert the raw fluorescence data to DF/F, the baseline fluorescence readings were subtracted from subsequent time points, and the resulting value was divided by the baseline fluorescence values.
On the technique in general: Calcium assays in cells follow changes in intracellular calcium, usually with a dye or a luminescent sensor.

For data set [2] the following is noted: pH 7.
Method: as §3
The next data set in a line: in vitro. To be noted: rat, serum.
The target of the next data set is T2, human V1aR (Homo sapiens, UniProt P37288).
T2 construct: expressed in transfected cells; host or cells: COS-1
T2 sequence (P37288 whole entry): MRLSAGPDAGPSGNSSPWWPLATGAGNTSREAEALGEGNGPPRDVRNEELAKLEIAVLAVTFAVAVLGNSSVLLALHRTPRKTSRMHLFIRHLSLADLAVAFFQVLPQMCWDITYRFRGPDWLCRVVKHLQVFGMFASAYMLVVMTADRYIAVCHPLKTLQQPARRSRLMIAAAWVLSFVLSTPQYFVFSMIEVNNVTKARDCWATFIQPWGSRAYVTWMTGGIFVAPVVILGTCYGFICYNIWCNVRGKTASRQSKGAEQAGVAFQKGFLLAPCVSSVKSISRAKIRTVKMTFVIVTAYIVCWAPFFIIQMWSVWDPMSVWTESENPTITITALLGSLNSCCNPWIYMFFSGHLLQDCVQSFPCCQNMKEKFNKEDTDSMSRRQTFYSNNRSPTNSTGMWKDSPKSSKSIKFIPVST
As to the kind of experiment: FLIPR calcium mobilisation assay, hV1aR. To be noted: COS-1 cells transfected with hV1aR; n = 3, mean ± SEM. It is filed as cell-based. As to the method: as §1
as §2, with “°C. The cells were then transferred to a” for “°C.”

Another data set has as its target T3, human OTR (Homo sapiens, UniProt P30559).
T3 construct: expressed in transfected cells; host or cells: COS-1
T3 sequence (P30559 1-389): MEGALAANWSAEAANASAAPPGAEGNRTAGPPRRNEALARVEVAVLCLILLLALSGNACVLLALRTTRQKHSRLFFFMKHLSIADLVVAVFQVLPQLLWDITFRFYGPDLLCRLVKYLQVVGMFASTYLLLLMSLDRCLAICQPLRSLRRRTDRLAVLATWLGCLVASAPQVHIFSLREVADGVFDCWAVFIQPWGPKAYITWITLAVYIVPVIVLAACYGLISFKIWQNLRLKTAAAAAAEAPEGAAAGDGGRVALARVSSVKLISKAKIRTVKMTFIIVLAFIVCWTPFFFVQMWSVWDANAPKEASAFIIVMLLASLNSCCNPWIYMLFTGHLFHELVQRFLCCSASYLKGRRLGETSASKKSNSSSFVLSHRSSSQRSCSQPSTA
Put plainly: FLIPR calcium mobilisation assay, hOTR. It is filed as cell-based. Particulars: for EC50: COS-1 cells transfected with hOTR, n = 3, mean ± SEM. The method, then: as §1, §2

A further data set in a line: physchem. Particulars: buffer.
Data set [3] is described as follows: Hydrophobicity assessment by analytical C18-RP-HPLC. The format is physicochemical. To be noted: 0–40% B. As to the method:
To identify the most OT-like radiotracer, we first assessed the hydrophobicity of all compounds by comparing their retention times with OT on an analytical C18-RP-HPLC column (Fig. 2A).
Fig. 2 Pharmacological characterisation of OT analogues. […] B Metabolic stability of OT analogues in rat and human serum. Each time point was analysed in three independent experiments (n = 3 technical triplicates, mean ± SEM). C Potencies (EC50) values for OT and analogues at the human OTR, V1aR, and V1bR, determined by a FLIPR calcium mobilisation assay (n = 3 technical triplicates, mean ± SEM). […]; similar hydrophobicity with HPLC Rt ± 20% from OT; buffer t1/2 > 30 min at pH 7; […]; EC50 at OTR < 50 nM; EC50 at V1aR and V1bR < 5×EC50(OTR) (n.a.: not assessed).

The mark [4] stands for this setting: pH 3, t1/2 pH 3.0, 100 mM sodium citrate buffer pH 3, 10 h.
[5] abbreviates: pH 7, t1/2 pH 7.0, 100 mM potassium phosphate buffer pH 7, 10 h.
The mark [6] stands for this setting: pH 9, t1/2 pH 9.0, 100 mM sodium carbonate buffer pH 9, 10 h.

Each structure is given as a SMILES string. Positions of bridges follow the written chain, without caps; N, C: chain ends. Non-standard residues stand in square brackets, D forms with d. Residues, ends and D or L forms follow the SMILES beside them. *: point of attachment. Benzoyl(4-F) = O=C(c1ccc(F)cc1)*; Mpa = O=C(O)CCS

Method for in vitro: One hundred and fifty microliters of rat or human serum (Sigma Aldrich) was preheated at 37 °C for 30 min. 25 μL of the tested peptide sample (0.3 M in 0.1 M potassium phosphate buffer at pH 7.2) or 0.1 M potassium phosphate buffer pH 7.2 (for blank sample) were added to the serum and incubated at 37 °C. […] Sampled were centrifugated at 20,000 × g for 10 min, and the supernatant analysed via LC-MS (column: Agilent Technology, Zorbex C18, 2.1 × 100 mm, 5 μm, 300 Å. Elution method: 0–50% B in 50 min, 0.25 mL/min. Solvent A: 0.1% TFA in H2O. Solvent B: 0.1% TFA in ACN). Each peptide sample was analysed in three independent experiments, and data analysis was performed using Prism Version 7, a nonlinear fit one-phase decay model.
Method for physchem: as §3

With `CC[C@H](C)[C@@H]1NC(=O)[C@H](Cc2ccc(O)cc2)NC(=O)CCSSC[C@@H](C(=O)N2CCC[C@H]2C(=O)N[C@@H](CCCCNCCS(=O)(=O)F)C(=O)NCC(N)=O)NC(=O)[C@H](CC(N)=O)NC(=O)[C@H](CCC(N)=O)NC1=O` [dOTK^8[ESF]], the half-life at 1 mM in data set [1] (setting [4]), in data set [1] (setting [5]) and in data set [1] (setting [6]) was more than 10 h throughout.

In the case of `CC[C@H](C)[C@@H]1NC(=O)[C@H](Cc2ccc(O)cc2)NC(=O)CCSSC[C@@H](C(=O)N2CCC[C@H]2C(=O)N[C@@H](CCCCNC(=O)c2ccc(F)cc2)C(=O)NCC(N)=O)NC(=O)[C@H](CC(N)=O)NC(=O)[C@H](CCC(N)=O)NC1=O` [dOTK^8[SFB]] ([Mpa]YIQNCPK(Benzoyl(4-F))G-NH2; disulfide 1-6), the EC50 at human V1bR amounted to 46 ± 3.6 nM; on human V1aR, 334.3 ± 0.6 nM; on human OTR, 46.8 ± 1.5 nM. In data set [2], the “degradation within 10 h” value stood at 25%. Besides, in the data set “in vitro”, the half-life at 0.043 M is more than 48 h. For the same molecule, the “fold less potent than OT at OTR” value at human OTR (EC50 compared with OT) was ~ 4 fold. The half-life at 1 mM in the data set “physchem” (pH 3), in the data set “physchem” (pH 7) and in the data set “physchem” (pH 9) was more than 10 h each time.

In “in vitro”, `CC[C@H](C)[C@@H]1NC(=O)[C@H](Cc2ccc(O)cc2)NC(=O)[C@@H](N)CSSC[C@@H](C(=O)N2CCC[C@H]2C(=O)N[C@@H](CC(C)C)C(=O)NCC(N)=O)NC(=O)[C@H](CC(N)=O)NC(=O)[C@H](CCC(N)=O)NC1=O` [OT, oxytocin, reference compound] showed a half-life at 0.043 M of 47 ± 0.05 h. The half-life at 1 mM in the data set “physchem” (pH 3), in “physchem” (pH 7) and in “physchem” (pH 9) was more than 10 h in each case.

As for `CC[C@H](C)[C@@H]1NC(=O)[C@H](Cc2ccc(O)cc2)NC(=O)[C@@H](N)CSSC[C@@H](C(=O)N2CCC[C@H]2C(=O)N[C@@H](CCCCNC(=O)CON=C[C@H](F)[C@@H](O)[C@H](O)[C@H](O)CO)C(=O)NCC(N)=O)NC(=O)[C@H](CC(N)=O)NC(=O)[C@H](CCC(N)=O)NC1=O` [OTK^8[Aoa-FDG]], the half-maximal effective concentration (EC50) at human V1bR was 54 ± 31 nM; on human V1aR it was 115 ± 81 nM; on human OTR, 5.25 ± 5.1 nM. Moreover, the “degradation within 10 h” value in data set [2] turned out to be 25%. For the same molecule, the half-life at 0.043 M in “in vitro” is 13 ± 0.11 h. Further, on human OTR (EC50 compared with OT), the “fold more potent than OT at OTR” value is reported as ~ 2 fold. Besides, the half-life at 1 mM in the data set “physchem” (pH 3), in “physchem” (pH 7) and in “physchem” (pH 9) was more than 10 h each time.

For the molecule `CC[C@H](C)[C@@H]1NC(=O)[C@H](Cc2ccc(O)cc2)NC(=O)[C@@H](N)CSSC[C@@H](C(=O)N2CCC[C@H]2C(=O)N[C@@H](CCCCNC(=O)CON=Cc2ccc(F)cc2)C(=O)NCC(N)=O)NC(=O)[C@H](CC(N)=O)NC(=O)[C@H](CCC(N)=O)NC1=O` [OTK^8[Aoa-FBA]], the results for the EC50 on human V1bR, at human V1aR and at human OTR were 354 ± 5.7 nM, 331.6 ± 0.4 nM and 42.1 ± 1.4 nM, respectively. Besides, the half-life at 0.043 M in “in vitro” is 18 ± 0.04 h. In addition, at human OTR (EC50 compared with OT), the “fold less potent than OT at OTR” value is given as ~ 4 fold. In addition, the half-life at 1 mM in “physchem” (pH 3), in “physchem” (pH 7) and in “physchem” (pH 9) was more than 10 h each time. The “hydrophobicity compared with OT (retention on C18-RP-HPLC)” value in data set [3] was “significantly more hydrophobic”.

On to `CC[C@H](C)[C@@H]1NC(=O)[C@H](Cc2ccc(O)cc2)NC(=O)CCSSC[C@@H](C(=O)N2CCC[C@H]2C(=O)N[C@@H](CCCCN(CCS(=O)(=O)F)CCS(=O)(=O)F)C(=O)NCC(N)=O)NC(=O)[C@H](CC(N)=O)NC(=O)[C@H](CCC(N)=O)NC1=O` [dOTK^8[ESF2]], for which the half-life at 1 mM in data set [1] (setting [4]) was 3.6 h; in data set [1] (pH 7, t1/2 at pH 7, pH 7, as stated in main text) it was less than 0.5 h; in data set [1] (setting [5]), less than 1 h; in data set [1] (pH 9, t1/2 at pH 9, pH 9, as stated in main text), less than 0.5 h; in data set [1] (setting [6]) it was less than 1 h. Moreover, in data set [3], the “hydrophobicity compared with OT (retention on C18-RP-HPLC)” value is recorded as “significantly more hydrophobic”.
